Laboratory results reported in patent US9925398B2, “Angiogenic peptide” (NOVACELL TECHNOLOGY INC., priority 2008, dated 2018).
Where a SMILES comes first, the peptide text is derived from it. [ ]: non-standard residue; d: D form.

The molecules below were run on MS-1 cells (assay: Suppression of SFKLRY-NH2-induced [Ca2+]i increase in MS-1 cells by inhibitors). Details: 100 ng/mL for 2 h prior to SFKLRY-NH2.
Type: cell-based, murine
Protocol: FIGS. 3A-3B show BAPTA, U73122 and PTX suppressed SFKLRY-NH2-induced [Ca^2+]i increase in MS-1 cells. […] (A) The cells were pre-incubated in DMEM containing 10 μM BAPTA-AM with Fluo-4/AM for 30 min at 37° C. Cells were suspended in Ca^2+-free Locke's solution containing 0.2 mM EGTA and treated with indicated concentrations of SFKLRY-NH2 (SEQ ID NO: 2). The change in fluorescence intensity was determined with excitation at 488 nm and the emission at 520 nm. (B) Cells were preincubated with or without U73122 (10 μM), U73433 (10 μM) for 30 min, and PTX (100 ng/mL) for 2 h with Fura-2, respectively. Fura-2-loaded cells were then suspended in Ca^2+-free Locke's solution and then treated with 1 μM SFKLRY-NH2 (SEQ ID NO: 2). The data are represent means±3 independent experiments each performed in triplicate. *P<0.05.

Molecule | effect on peptide-dependent intracellular Ca2+ mobilization
Pertussis toxin [PTX] | remarkably attenuated

Same assay, conditions: 10 μM preloading; Ca2+-free Locke's solution with 0.2 mM EGTA

Molecule | effect on peptide-induced [Ca2+]i increase
CC(=O)OCOC(=O)CN(CC(=O)OCOC(C)=O)c1ccccc1OCCOc1ccccc1N(CC(=O)OCOC(C)=O)CC(=O)OCOC(C)=O [BAPTA-AM, 1,2-bis(2-aminophenoxy)ethane-N,N,N′,N′-tetraacetoxymethyl ester] | completely abolished

Same assay, conditions: 10 μM, 30 min preincubation; 1 μM SFKLRY-NH2

Molecule | effect on peptide-induced intracellular calcium mobilization
COc1ccc2c(c1)CC[C@@H]1[C@@H]2CC[C@]2(C)[C@@H](NCCCCCCN3C(=O)CCC3=O)CC[C@@H]12 [U73433] | little inhibitory effect
COc1ccc2c(c1)CC[C@@H]1[C@@H]2CC[C@]2(C)[C@@H](NCCCCCCN3C(=O)C=CC3=O)CC[C@@H]12 [U73122] | completely abolished

Each molecule was assayed on MS-1 cells (assay: [Ca2+]i mobilization assay in MS-1 cells). Details: three experiments, read-out: Mean EC50 (μM), dose-dependent changes in intracellular Ca2+.
Type: cell-based, murine
Protocol: Cells were incubated with 4 μM Fura-2 AM and 250 μM sulfinpyrazone in serum-free DMEM medium at 37° C. for 30 min with continuous stirring. The cells were then washed with Locke's solution (M. Faehling, et al., FASEB J 16 (2002), pp. 1805-1807) and diluted to 2×10^6 cells/mL. 50 μL aliquots of cell suspension were added to each well of a 96-well plate, and the change in fluorescence ratio was determined at dual excitation wavelengths of 340 and 380 nm and emission wavelength of 500 nm following addition of peptides. Plates were read immediately following the addition of peptide pools, resulting in a time delay of approximately 5 s between peptide addition and detection by the FLEXstation (Molecular Devices). Negative and positive controls were run simultaneously with test samples to ensure that all samples were subjected to identical conditions. The calibration of the fluorescence ratio in terms of [Ca^2+]i was performed according to Grynkiewicz et al. J Biol Chem 260 (1985), pp. 3440-3450.
To identify peptides that stimulate intracellular calcium mobilization in murine endothelial cells (MS-1 cells), the inventors screened 114 pools of C-terminally amidated synthetic hexapeptides.

Molecule | EC50
CC(C)C[C@H](NC(=O)[C@H](CCCCN)NC(=O)[C@H](Cc1ccccc1)NC(=O)[C@@H](N)CO)C(=O)N[C@@H](CCCNC(=N)N)C(=O)N[C@@H](Cc1ccc(O)cc1)C(=O)O [SEQ ID NO 1, SFKLRY-COOH] (H-SFKLRY-OH; N-terminus assumed) | > 10 µM
CC(C)C[C@H](NC(=O)[C@H](CCCCN)NC(=O)[C@H](Cc1ccccc1)NC(=O)[C@@H](N)CO)C(=O)N[C@@H](CCCNC(=N)N)C(=O)N[C@@H](CCCNC(=N)N)C(N)=O [SEQ ID NO 16, SFKLRR-NH2] (H-SFKLRR-NH2; N-terminus assumed) | 2.66 µM
CC(C)C[C@H](NC(=O)[C@H](CCCCN)NC(=O)[C@H](Cc1ccccc1)NC(=O)[C@@H](N)CO)C(=O)N[C@@H](CCCNC(=N)N)C(=O)N[C@@H](Cc1ccc(O)cc1)C(N)=O [SEQ ID NO 2, SFKLRY-NH2] (H-SFKLRY-NH2; N-terminus assumed) | 1.21 µM
CC[C@H](C)[C@H](NC(=O)[C@H](Cc1ccccc1)NC(=O)[C@@H](N)CO)C(=O)N[C@@H](CC(C)C)C(=O)N[C@@H](CCCNC(=N)N)C(=O)N[C@@H](Cc1c[nH]c2ccccc12)C(N)=O [SEQ ID NO 20, SFILRW-NH2] (H-SFILRW-NH2; N-terminus assumed) | 1.98 µM
CC[C@H](C)[C@H](NC(=O)[C@H](Cc1ccccc1)NC(=O)[C@@H](N)CO)C(=O)N[C@@H](CC(C)C)C(=O)N[C@@H](CCCNC(=N)N)C(=O)N[C@@H](CCCNC(=N)N)C(N)=O [SEQ ID NO 18, SFILRR-NH2] (H-SFILRR-NH2; N-terminus assumed) | 0.97 µM
CC(C)C[C@H](NC(=O)[C@H](CCCNC(=N)N)NC(=O)[C@H](Cc1ccccc1)NC(=O)[C@@H](N)CO)C(=O)N[C@@H](CCCNC(=N)N)C(=O)N[C@@H](Cc1ccc(O)cc1)C(N)=O [SEQ ID NO 15, SFRLRY-NH2] (H-SFRLRY-NH2; N-terminus assumed) | 0.97 µM
CC(C)C[C@H](NC(=O)[C@H](CCCCN)NC(=O)[C@H](Cc1ccccc1)NC(=O)[C@@H](N)CO)C(=O)N[C@@H](CCCNC(=N)N)C(=O)N[C@@H](Cc1c[nH]c2ccccc12)C(N)=O [SEQ ID NO 19, SFKLRW-NH2] (H-SFKLRW-NH2; N-terminus assumed) | 2.37 µM
CC(C)C[C@H](NC(=O)[C@H](CCCCN)NC(=O)[C@H](Cc1ccccc1)NC(=O)[C@@H](N)CO)C(N)=O [SEQ ID NO 13, SFKL-NH2] (H-SFKL-NH2; N-terminus assumed) | > 50 µM
CC(C)C[C@H](NC(=O)[C@H](CCCCN)NC(=O)[C@H](Cc1ccccc1)NC(=O)[C@@H](N)CO)C(=O)N[C@@H](CCCNC(=N)N)C(=O)N[C@@H](Cc1c[nH]cn1)C(N)=O [SEQ ID NO 23, SFKLRH-NH2] (H-SFKLRH-NH2; N-terminus assumed) | 3.6 µM
CC[C@H](C)[C@H](NC(=O)[C@H](Cc1ccccc1)NC(=O)[C@@H](N)CO)C(=O)N[C@@H](CC(C)C)C(=O)N[C@@H](CCCNC(=N)N)C(=O)N[C@@H](Cc1ccccc1)C(N)=O [SEQ ID NO 22, SFILRF-NH2] (H-SFILRF-NH2; N-terminus assumed) | 2.01 µM
CC(C)C[C@H](NC(=O)[C@H](CCCCN)NC(=O)[C@H](Cc1ccccc1)NC(=O)[C@@H](N)CO)C(=O)N[C@@H](CCCNC(=N)N)C(=O)N[C@@H](Cc1ccccc1)C(N)=O [SEQ ID NO 21, SFKLRF-NH2] (H-SFKLRF-NH2; N-terminus assumed) | 3.16 µM
CC[C@H](C)[C@H](NC(=O)[C@H](Cc1ccccc1)NC(=O)[C@@H](N)CO)C(=O)N[C@@H](CC(C)C)C(=O)N[C@@H](CCCNC(=N)N)C(=O)N[C@@H](Cc1ccc(O)cc1)C(N)=O [SEQ ID NO 17, SFILRY-NH2] (H-SFILRY-NH2; N-terminus assumed) | 0.99 µM
CC(C)C[C@H](NC(=O)[C@H](CCCCN)NC(=O)[C@H](Cc1ccccc1)NC(=O)[C@@H](N)CO)C(=O)N[C@@H](CCCNC(=N)N)C(=O)N[C@H](Cc1ccc(O)cc1)C(N)=O [SEQ ID NO 8, SFKLRy-NH2(d-form)] (H-SFKLR[dY]-NH2; N-terminus assumed) | 1.14 µM
CC(C)C[C@H](NC(=O)[C@H](CCCCN)NC(=O)[C@H](Cc1ccccc1)NC(=O)[C@@H](N)CO)C(=O)N[C@H](CCCNC(=N)N)C(=O)N[C@@H](Cc1ccc(O)cc1)C(N)=O [SEQ ID NO 7, SFKLrY-NH2(d-form)] (H-SFKL[dR]Y-NH2; N-terminus assumed) | > 100 µM
CC(C)C[C@H](NC(=O)[C@H](CCCCN)NC(=O)[C@H](Cc1ccccc1)NC(=O)[C@@H](N)[C@@H](C)O)C(=O)N[C@@H](CCCNC(=N)N)C(=O)N[C@@H](Cc1ccc(O)cc1)C(N)=O [SEQ ID NO 24, TFKLRY-NH2] (H-TFKLRY-NH2; N-terminus assumed) | 3.87 µM
CC(C)C[C@H](NC(=O)[C@H](CCCCN)NC(=O)[C@H](Cc1ccccc1)NC(=O)[C@@H](N)CO)C(=O)N[C@@H](CCCNC(=N)N)C(N)=O [SEQ ID NO 12, SFKLR-NH2] (H-SFKLR-NH2; N-terminus assumed) | 6.19 µM

Each molecule was assayed on Rat aortic explants (assay: Aortic ring assay (vessel sprouting ex vivo)). Details: 50 ng/mL co-treatment with SFKLRY-NH2 1 μM; 7 days.
Type: cell-based
Protocol: The method developed by Nicosia and Ottinetti in In Vitro Cell Dev Biol 26 (1990), pp. 119-128 was used with some modifications. Aortas were harvested from 6-week-old Sprague-Dawley rats. After removing the surrounding fibro-adipose tissues, the rings were immersed in Matrigel in wells within culture dishes. The aortic rings were cultured (5% CO2, 37° C.) in serum-free M199 containing SFKLRY-NH2 (SEQ ID NO: 2), S1P, FYSRLK-NH2, or VEGF in the presence or absence of PTX or U73122. On day 7, sprouting from aortic explants was measured.
To address whether SFKLRY-NH2 (SEQ ID NO: 2) plays a role in sprouting of vascular endothelial cells ex vivo, aortic rings were analyzed in the presence of various stimuli including 1 μM SFKLRY-NH2 (SEQ ID NO: 2), 10 ng/mL VEGF, 10 nM S1P, and 10% FBS. […] Rat aortic explants in Matrigel were incubated with M-199 harboring SFKLRY-NH2 (SEQ ID NO: 2) (1 μM), FYSRLK-NH2 (1 μM), S1P (10 nM), VEGF (10 ng/mL), SFKLRY-NH2 (SEQ ID NO: 2) (1 μM) with U73122 (10 μM) or PTX (50 ng/mL), or 10% FBS and photographed after incubation for 7 days. Three independent experiments were then conducted, each in duplicate.

Molecule | effect on vessel sprouting promoted by SFKLRY-NH2
Pertussis toxin [PTX] | markedly attenuated

Same assay, conditions: 10 μM co-treatment with SFKLRY-NH2 1 μM; 7 days

Molecule | effect on vessel sprouting promoted by SFKLRY-NH2
COc1ccc2c(c1)CC[C@@H]1[C@@H]2CC[C@]2(C)[C@@H](NCCCCCCN3C(=O)C=CC3=O)CC[C@@H]12 [U73122] | markedly attenuated
